Reference: the NIST ThermoML archive (doi:10.1016/j.jct.2018.03.013)
± gives the expanded uncertainty stated by the source.

Assay: xn = mol fraction of the nth substance listed
Details: 100 kPa, Liquid; for speed of sound: Frequency=3 MHz, Linear variable-path acoustic interferometer; for mass density: Pycnometric method

C=C(C)C(=O)OCCCC [butyl 2-methyl-2-propenoate] + CC#N
speed of sound (308.15 K, x2 = 0): 1183 ± 1.7 m/s | speed of sound (308.15 K, x2 = 0.0681): 1185.9 ± 1.7 m/s | speed of sound (308.15 K, x2 = 0.1359): 1188.7 ± 1.7 m/s | speed of sound (308.15 K, x2 = 0.1976): 1191.2 ± 1.7 m/s | speed of sound (308.15 K, x2 = 0.2728): 1194.1 ± 1.6 m/s | speed of sound (308.15 K, x2 = 0.3442): 1196.8 ± 1.6 m/s | speed of sound (308.15 K, x2 = 0.4143): 1199.4 ± 1.6 m/s | speed of sound (308.15 K, x2 = 0.4658): 1201.4 ± 1.6 m/s | speed of sound (308.15 K, x2 = 0.5243): 1203.8 ± 1.6 m/s | speed of sound (308.15 K, x2 = 0.5649): 1205.6 ± 1.6 m/s | speed of sound (308.15 K, x2 = 0.639): 1209.1 ± 1.6 m/s | speed of sound (308.15 K, x2 = 0.7112): 1213.1 ± 1.6 m/s | speed of sound (308.15 K, x2 = 0.7836): 1218.1 ± 1.6 m/s | speed of sound (308.15 K, x2 = 0.8558): 1224.4 ± 1.6 m/s | speed of sound (308.15 K, x2 = 0.928): 1233 ± 1.6 m/s | mass density (308.15 K, x2 = 0): 881.07 ± 1 kg/m3 | mass density (308.15 K, x2 = 0.0681): 878.55 ± 1 kg/m3 | mass density (308.15 K, x2 = 0.1359): 875.74 ± 1 kg/m3 | mass density (308.15 K, x2 = 0.1976): 872.89 ± 1 kg/m3 | mass density (308.15 K, x2 = 0.2728): 868.98 ± 1 kg/m3 | mass density (308.15 K, x2 = 0.3442): 864.75 ± 1 kg/m3 | mass density (308.15 K, x2 = 0.4143): 860.01 ± 1 kg/m3 | mass density (308.15 K, x2 = 0.4658): 856.1 ± 1 kg/m3 | mass density (308.15 K, x2 = 0.5243): 851.13 ± 1 kg/m3 | mass density (308.15 K, x2 = 0.5649): 847.3 ± 1 kg/m3 | mass density (308.15 K, x2 = 0.639): 839.36 ± 1 kg/m3 | mass density (308.15 K, x2 = 0.7112): 830.15 ± 1 kg/m3 | mass density (308.15 K, x2 = 0.7836): 819.01 ± 1 kg/m3 | mass density (308.15 K, x2 = 0.8558): 805.37 ± 1 kg/m3 | mass density (308.15 K, x2 = 0.928): 788.25 ± 1 kg/m3 | speed of sound (313.15 K, x2 = 0): 1163.8 ± 1.7 m/s | speed of sound (313.15 K, x2 = 0.0681): 1166.7 ± 1.7 m/s | speed of sound (313.15 K, x2 = 0.1359): 1169.6 ± 1.6 m/s | speed of sound (313.15 K, x2 = 0.1976): 1172.1 ± 1.6 m/s | speed of sound (313.15 K, x2 = 0.2728): 1175 ± 1.6 m/s | speed of sound (313.15 K, x2 = 0.3442): 1177.7 ± 1.6 m/s | speed of sound (313.15 K, x2 = 0.4143): 1180.4 ± 1.6 m/s | speed of sound (313.15 K, x2 = 0.4658): 1182.4 ± 1.6 m/s | speed of sound (313.15 K, x2 = 0.5243): 1184.8 ± 1.6 m/s | speed of sound (313.15 K, x2 = 0.5649): 1186.6 ± 1.6 m/s | speed of sound (313.15 K, x2 = 0.639): 1190.2 ± 1.6 m/s | speed of sound (313.15 K, x2 = 0.7112): 1194.2 ± 1.6 m/s | speed of sound (313.15 K, x2 = 0.7836): 1199.3 ± 1.6 m/s | speed of sound (313.15 K, x2 = 0.8558): 1205.7 ± 1.6 m/s | speed of sound (313.15 K, x2 = 0.928): 1214.3 ± 1.6 m/s | mass density (313.15 K, x2 = 0): 876.35 ± 1 kg/m3 | mass density (313.15 K, x2 = 0.0681): 873.82 ± 1 kg/m3 | mass density (313.15 K, x2 = 0.1359): 871 ± 1 kg/m3 | mass density (313.15 K, x2 = 0.1976): 868.13 ± 1 kg/m3 | mass density (313.15 K, x2 = 0.2728): 864.2 ± 1 kg/m3 | mass density (313.15 K, x2 = 0.3442): 859.95 ± 1 kg/m3 | mass density (313.15 K, x2 = 0.4143): 855.18 ± 1 kg/m3 | mass density (313.15 K, x2 = 0.4658): 851.24 ± 1 kg/m3 | mass density (313.15 K, x2 = 0.5243): 846.24 ± 1 kg/m3 | mass density (313.15 K, x2 = 0.5649): 842.39 ± 1 kg/m3 | mass density (313.15 K, x2 = 0.639): 834.41 ± 1 kg/m3 | mass density (313.15 K, x2 = 0.7112): 825.14 ± 1 kg/m3 | mass density (313.15 K, x2 = 0.7836): 813.95 ± 1 kg/m3 | mass density (313.15 K, x2 = 0.8558): 800.24 ± 1 kg/m3 | mass density (313.15 K, x2 = 0.928): 783.04 ± 1 kg/m3 | speed of sound (318.15 K, x2 = 0): 1145.7 ± 1.7 m/s | speed of sound (318.15 K, x2 = 0.0681): 1148.6 ± 1.6 m/s | speed of sound (318.15 K, x2 = 0.1359): 1151.5 ± 1.6 m/s | speed of sound (318.15 K, x2 = 0.1976): 1154 ± 1.6 m/s | speed of sound (318.15 K, x2 = 0.2728): 1156.9 ± 1.6 m/s | speed of sound (318.15 K, x2 = 0.3442): 1159.6 ± 1.6 m/s | speed of sound (318.15 K, x2 = 0.4143): 1162.3 ± 1.6 m/s | speed of sound (318.15 K, x2 = 0.4658): 1164.3 ± 1.6 m/s | speed of sound (318.15 K, x2 = 0.5243): 1166.7 ± 1.6 m/s | speed of sound (318.15 K, x2 = 0.5649): 1168.4 ± 1.6 m/s | speed of sound (318.15 K, x2 = 0.639): 1171.9 ± 1.6 m/s | speed of sound (318.15 K, x2 = 0.7112): 1175.9 ± 1.6 m/s | speed of sound (318.15 K, x2 = 0.7836): 1180.9 ± 1.6 m/s | speed of sound (318.15 K, x2 = 0.8558): 1187.3 ± 1.6 m/s | speed of sound (318.15 K, x2 = 0.928): 1195.8 ± 1.6 m/s | mass density (318.15 K, x2 = 0): 871.64 ± 1 kg/m3 | mass density (318.15 K, x2 = 0.0681): 869.11 ± 1 kg/m3 | mass density (318.15 K, x2 = 0.1359): 866.27 ± 1 kg/m3 | mass density (318.15 K, x2 = 0.1976): 863.39 ± 1 kg/m3 | mass density (318.15 K, x2 = 0.2728): 859.43 ± 1 kg/m3 | mass density (318.15 K, x2 = 0.3442): 855.15 ± 1 kg/m3 | mass density (318.15 K, x2 = 0.4143): 850.35 ± 1 kg/m3 | mass density (318.15 K, x2 = 0.4658): 846.39 ± 1 kg/m3 | mass density (318.15 K, x2 = 0.5243): 841.36 ± 1 kg/m3 | mass density (318.15 K, x2 = 0.5649): 837.49 ± 1 kg/m3 | mass density (318.15 K, x2 = 0.639): 829.46 ± 1 kg/m3 | mass density (318.15 K, x2 = 0.7112): 820.14 ± 1 kg/m3 | mass density (318.15 K, x2 = 0.7836): 808.89 ± 1 kg/m3 | mass density (318.15 K, x2 = 0.8558): 795.11 ± 1 kg/m3 | mass density (318.15 K, x2 = 0.928): 777.83 ± 1 kg/m3
